Laboratory results as given in patent US20150320770A1, “NOVEL COMPOSITIONS AND METHODS FOR TREATING PROSTATE CANCER” (Tokai Pharmaceuticals, Inc., priority 2011, published 2015).

Assay: API solubility assessment in common solvents
Type: physicochemical
Experimental: The solubility of the API was assessed in several common solvents systems to ensure obtaining the maximum API concentration for the spray drying process. […] Subsequently this binary solvent mixture was changed to the 2:1, methanol:acetone mixture due to long secondary drying times observed with the 2:1, methanol:THF system.

API Solubility (%) (2:1 Acetone:Methanol): 4.16%
API Solubility (%) (2:1 Methanol:Acetone): 7.28%
API Solubility (%) (2:1 Methanol:Tetrahydrofuran): 16.64%
API Solubility (%) (Acetone): 1.04%
API Solubility (%) (Ethanol): 4.68%
API Solubility (%) (Ethyl Acetate): 0%
API Solubility (%) (Methanol): 4.16%
API Solubility (%) (Tetrahydrofuran): 7.28%
SMILES: C[C@]12CC[C@H](O)CC1=CCC1C2CC[C@]2(C)C(n3cnc4ccccc43)=CCC12 (stereo partly drawn) [Compound (1), 3-β-Hydroxy17-(1H-benzimidazol-1-yl)androsta-5,16-diene]
